Test results reported in patent US20230346824A1, “MEANS AND METHODS OF PREVENTING AND TREATING INFECTIONS” (SolyPlus GmbH, priority 2020, published 2023).

These molecules were tested on S protein monomer (assay: MST binding to RED labelled S protein monomer in 50% negative human serum (FIGS. 4, 7, 8, 10, 12)). Conditions: 20 nM S protein monomer, ligand 0.5 µM - 0.2 nM arbitrary units, PBS 0.05% Tween 20, 50% negative human serum.
Design: species or system SARS-CoV-2

Row | SMILES | binding to S protein monomer detected by MST
1 | Cn1c(=O)c2c(ncn2C)n(C)c1=O [Coffein, caffeine] | A binding could be detected
2 | O=C[C@H](O)[C@@H](O)[C@@H](O)[C@H](O)CO [D+Galactose, D-Galactose] | A binding could be detected
3 | O=C[C@H](O)[C@@H](O)[C@@H](O)CO [L+Arabinose, L-Arabinose] | No binding could be detected
